In data set [1] the target is T1, Bromodomain and PHD finger-containing protein 3 (Homo sapiens, UniProt Q9ULD4).
T1 sequence (Q9ULD4 whole entry): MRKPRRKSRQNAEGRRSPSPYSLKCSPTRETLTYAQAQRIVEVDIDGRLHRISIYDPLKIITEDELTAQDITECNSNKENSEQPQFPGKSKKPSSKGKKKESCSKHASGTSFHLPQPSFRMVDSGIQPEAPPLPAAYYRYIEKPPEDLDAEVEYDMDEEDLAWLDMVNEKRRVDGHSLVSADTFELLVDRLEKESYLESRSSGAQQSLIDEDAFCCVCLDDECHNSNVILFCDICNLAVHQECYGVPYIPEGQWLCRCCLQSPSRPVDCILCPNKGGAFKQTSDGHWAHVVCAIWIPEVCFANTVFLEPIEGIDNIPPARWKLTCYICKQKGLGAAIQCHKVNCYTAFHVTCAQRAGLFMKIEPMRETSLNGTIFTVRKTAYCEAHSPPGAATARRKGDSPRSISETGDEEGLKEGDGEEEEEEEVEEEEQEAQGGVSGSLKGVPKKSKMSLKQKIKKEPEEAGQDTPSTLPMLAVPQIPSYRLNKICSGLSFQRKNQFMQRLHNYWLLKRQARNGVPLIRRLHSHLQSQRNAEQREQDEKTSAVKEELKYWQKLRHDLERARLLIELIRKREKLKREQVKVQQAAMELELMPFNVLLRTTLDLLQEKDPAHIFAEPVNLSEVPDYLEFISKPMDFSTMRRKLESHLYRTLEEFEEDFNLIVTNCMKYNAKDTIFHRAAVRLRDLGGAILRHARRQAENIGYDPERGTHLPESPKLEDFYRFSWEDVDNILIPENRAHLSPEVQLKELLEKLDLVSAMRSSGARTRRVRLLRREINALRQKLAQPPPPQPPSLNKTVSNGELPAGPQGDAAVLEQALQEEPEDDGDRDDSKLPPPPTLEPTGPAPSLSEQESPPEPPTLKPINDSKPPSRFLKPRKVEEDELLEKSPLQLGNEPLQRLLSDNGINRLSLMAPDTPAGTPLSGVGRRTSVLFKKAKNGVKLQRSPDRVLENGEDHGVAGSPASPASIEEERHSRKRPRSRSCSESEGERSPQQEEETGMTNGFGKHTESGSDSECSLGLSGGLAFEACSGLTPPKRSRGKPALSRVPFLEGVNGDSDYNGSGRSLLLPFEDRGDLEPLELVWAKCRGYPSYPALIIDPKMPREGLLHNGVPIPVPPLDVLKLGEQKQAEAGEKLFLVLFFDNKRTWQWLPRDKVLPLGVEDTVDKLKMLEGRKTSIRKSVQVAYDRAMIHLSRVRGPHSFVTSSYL
Kind of data set: Inhibition of human BRPF3 (588 to 701 residues) expressed in Escherichia coli BL21 after 1 hr by BROMOscan assay.

Data set [2] addresses T2, Peregrin (Homo sapiens) (UniProt P55201).
T2 sequence (whole entry): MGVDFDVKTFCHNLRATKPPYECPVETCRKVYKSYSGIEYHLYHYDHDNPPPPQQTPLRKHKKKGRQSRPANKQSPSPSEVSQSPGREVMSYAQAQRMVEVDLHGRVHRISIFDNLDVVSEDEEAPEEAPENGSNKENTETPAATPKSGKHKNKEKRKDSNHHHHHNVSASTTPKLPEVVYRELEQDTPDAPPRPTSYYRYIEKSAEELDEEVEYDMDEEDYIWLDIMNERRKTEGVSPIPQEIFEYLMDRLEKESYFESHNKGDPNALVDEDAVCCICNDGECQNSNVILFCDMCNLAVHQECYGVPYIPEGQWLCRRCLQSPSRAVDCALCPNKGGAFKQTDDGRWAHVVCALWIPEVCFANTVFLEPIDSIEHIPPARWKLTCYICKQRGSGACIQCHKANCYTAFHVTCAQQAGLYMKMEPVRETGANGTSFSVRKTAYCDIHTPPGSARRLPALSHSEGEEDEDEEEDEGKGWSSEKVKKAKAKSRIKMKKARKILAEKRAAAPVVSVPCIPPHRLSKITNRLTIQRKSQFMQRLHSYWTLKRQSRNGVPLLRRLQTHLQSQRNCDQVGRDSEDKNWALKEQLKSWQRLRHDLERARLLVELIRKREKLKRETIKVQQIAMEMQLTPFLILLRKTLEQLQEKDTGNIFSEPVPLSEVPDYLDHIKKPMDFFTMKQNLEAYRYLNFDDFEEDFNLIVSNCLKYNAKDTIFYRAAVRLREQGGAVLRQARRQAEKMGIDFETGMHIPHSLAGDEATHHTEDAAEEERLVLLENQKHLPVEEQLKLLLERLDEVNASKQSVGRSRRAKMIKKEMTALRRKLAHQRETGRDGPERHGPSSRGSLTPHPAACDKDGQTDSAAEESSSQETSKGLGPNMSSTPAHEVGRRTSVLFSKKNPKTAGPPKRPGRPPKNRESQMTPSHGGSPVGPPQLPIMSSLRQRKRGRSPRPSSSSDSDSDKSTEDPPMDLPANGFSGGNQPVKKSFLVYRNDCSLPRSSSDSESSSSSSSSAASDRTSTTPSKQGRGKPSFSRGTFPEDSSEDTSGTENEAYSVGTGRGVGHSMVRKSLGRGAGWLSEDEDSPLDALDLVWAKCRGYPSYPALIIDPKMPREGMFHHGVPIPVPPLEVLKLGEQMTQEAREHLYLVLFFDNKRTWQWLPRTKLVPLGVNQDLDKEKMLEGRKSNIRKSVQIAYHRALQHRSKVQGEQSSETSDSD
Description: Binding affinity to BRPF1 (unknown origin) assessed as change in melting temperature at 10 uM by differential scanning fluorimetry based thermal shift assay

The nature of data set [3]: Aqueous solubility of compound. It is filed as physicochemical. To be noted: buffer.
Data set [4] relates to Liver. Briefly: Metabolic stability in mouse liver microsomes by UPLC-MS/MS analysis. The class given is ADME, microsome.
Data set [5] relates to NCI-H1703. Briefly: Inhibition of cell proliferation of human NCI-H1703 cells after 72 hrs by MTS assay. As to conditions: NCI-H1703, 72 h. It is filed as functional.
Data set [6] in a line: Inhibition of cell proliferation of human HRA19 cells after 72 hrs by MTS assay. It is filed as functional. As to conditions: HRA19, 72 h.
A short description of data set [7]: Elimination half life in CD1 mouse at 1 mg/kg, iv by UPLC-MS/MS analysis. It is filed as ADME, organism-based. As to conditions: in vivo, read-out: beta t1/2 (converted).

The structures appear in SMILES notation. In brackets after ≈: the same amount, converted by molar mass. Some results are limits rather than exact numbers.

In data set [1], `COc1cc(C#N)ccc1S(=O)(=O)Nc1ccc2c(c1)cc(C(C)C)c(=O)n2C` had an IC50 of 4.6 µM.
In data set [1], `Cn1c(=O)ccc2cc(S(=O)(=O)Nc3ccccc3)ccc21` yielded a half-inhibitory concentration (IC50) of over 100 µM. For the same compound, the ΔTm in data set [2] is 3.5 °C.
Compound `COc1cc(C#N)ccc1S(=O)(=O)Nc1ccc2c(c1)cc(C)c(=O)n2C` gave a solubility in data set [3] of 100 µM (≈ 38.3 µg/mL). Besides, the Stability entry in data set [4] was “Stable”. The GI50 is 10.4 µM in data set [5] and 15.6 µM in data set [6]. For the same compound, in data set [7], the half-life is 1.2 h. Besides, in data set [2], the thermal shift (ΔTm) amounted to 12.3 °C.

The record behind these values is ChEMBL document CHEMBL4028852, “Design of a Chemical Probe for the Bromodomain and Plant Homeodomain Finger-Containing (BRPF) Family of Proteins” (J Med Chem, 2017).
